Measurements reported in patent US11046680B1, “Heteroaryl-substituted triazoles as APJ receptor agonists” (priority 2016, dated 2021).

What follows are compounds tested against human APJ receptor (Homo sapiens (Human), UniProt P35414) (assay: biochemical). Conditions: [35S]GTPγS binding, CHO membranes expressing human APJ receptor; read-out: Activity hAPJ SPA EC50 IP.
Sequence of human APJ receptor (P35414 whole entry): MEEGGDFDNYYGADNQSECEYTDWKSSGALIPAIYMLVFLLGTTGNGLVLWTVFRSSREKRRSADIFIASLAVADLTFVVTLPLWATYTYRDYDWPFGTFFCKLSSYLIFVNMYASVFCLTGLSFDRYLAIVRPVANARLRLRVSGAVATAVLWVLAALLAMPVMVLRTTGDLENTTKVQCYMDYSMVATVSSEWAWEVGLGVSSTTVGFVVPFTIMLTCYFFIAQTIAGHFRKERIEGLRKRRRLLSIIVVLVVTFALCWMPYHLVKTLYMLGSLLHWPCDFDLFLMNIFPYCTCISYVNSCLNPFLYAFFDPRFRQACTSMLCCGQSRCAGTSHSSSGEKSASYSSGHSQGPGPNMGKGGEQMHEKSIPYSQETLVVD
Format: biochemical
Summary of the method: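 Membranes of a stable CHO line carrying human APJ (pFLAG-CMV-3) were used in a GTPγS binding format; buffer GDP, MgCl2 and NaCl were optimized, and plates were read after 90 min at RT.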
In the case of COc1cnc([C@@H](OC)[C@H](C)S(=O)(=O)Nc2nnc(-c3ccn(C)n3)n2-c2c(OC)ncnc2OC)cn1 [Example 460.0, (1R,2S)-N-(4-(4,6-dimethoxy-5-pyrimidinyl)-5-(1-methyl-1H-pyrazol-3-yl)-4H-1,2,4-triazol-3-yl)-1-methoxy-1-(5-methoxy-2-pyrazinyl)-2-propanesulfonamide], the EC50 is reported as 2.6 nM.
Work on COc1cccc(OC)c1-n1c(NS(=O)(=O)[C@H](C)Cc2ncc(F)cn2)nnc1-c1ccn(C)c1 (single isomer, unassigned) [Example 34.0, (R)-N-(4-(2,6-dimethoxyphenyl)-5-(1-methyl-1H-pyrrol-3-yl)-4H-1,2,4-triazol-3-yl)-1-(5-fluoropyrimidin-2-yl)propane-2-sulfonamide or (S)-N-(4-(2,6-dimethoxyphenyl)-5-(1-methyl-1H-pyrrol-3-yl)-4H-1,2,4-triazol-3-yl)-1-(5-fluoropyrimidin-2-yl)propane-2-sulfonamide] yielded an EC50 of 4.5 nM.
COc1cccc(OC)c1-n1c(NS(=O)(=O)[C@@H](C)[C@H](OC)c2ncc(C)cn2)nnc1-c1ncnc2cc[nH]c12 [Example 435.0, (1R,2S)-N-(4-(2,6-dimethoxyphenyl)-5-(5H-pyrrolo[3,2-d]pyrimidin-4-yl)-4H-1,2,4-triazol-3-yl)-1-methoxy-1-(5-methylpyrimidin-2-yl)propane-2-sulfonamide] was tested, and the EC50 was 180 nM.
COc1cccc(OC)c1-n1c(NS(=O)(=O)[C@@H](C)[C@H](C)c2ncc(C#N)cn2)nnc1-c1cc2n(n1)CCC2 [Example 225.0] was tested, and the EC50 was 2 nM.
COc1cccc(OC)c1-n1c(NS(=O)(=O)[C@@H](C)[C@H](C)c2ncc(F)cn2)nnc1-c1cc(C)[nH]n1 [Example 268.0, (2S,3R)-N-(4-(2,6-dimethoxyphenyl)-5-(5-methyl-1H-pyrazol-3-yl)-4H-1,2,4-triazol-3-yl)-3-(5-fluoro-2-pyrimidinyl)-2-butanesulfonamide] gave an EC50 of 0.68 nM.
Compound CCc1csc(-c2nnc(NS(=O)(=O)CCc3ncc(F)cn3)n2-c2c(OC)cccc2OC)n1 [Example 97.0, N-(4-(2,6-dimethoxyphenyl)-5-(4-ethylthiazol-2-yl)-4H-1,2,4-triazol-3-yl)-2-(5-fluoropyrimidin-2-yl)ethanesulfonamide] has an EC50 of 7 nM.
Cc1cnc([C@@H](C)[C@H](C)S(=O)(=O)Nc2nnc(-c3cnn4c3CCC4)n2-c2c(F)cccc2F)nc1 [Example 483.0, (2S,3R)-N-(4-(2,6-difluorophenyl)-5-(5,6-dihydro-4H-pyrrolo[1,2-b]pyrazol-3-yl)-4H-1,2,4-triazol-3-yl)-3-(5-methylpyrimidin-2-yl)butane-2-sulfonamide] showed an EC50 of 5.4 nM.
For COc1cccc(OC)c1-n1c(NS(=O)(=O)[C@H](C)[C@@H](OC)c2ncc(F)cn2)nnc1-c1ccn(C)n1 (single isomer, unassigned) [Example 118.0, (1S,2R)-N-(4-(2,6-dimethoxyphenyl)-5-(1-methyl-1H-pyrazol-3-yl)-4H-1,2,4-triazol-3-yl)-1-(5-fluoropyrimidin-2-yl)-1-methoxypropane-2-sulfonamide or (1R,2S)-N-(4-(2,6-dimethoxyphenyl)-5-(1-methyl-1H-pyrazol-3-yl)-4H-1,2,4-triazol-3-yl)-1-(5-fluoropyrimidin-2-yl)-1-methoxypropane-2-sulfonamide], the EC50 was 100 nM.
With COc1cccc(OC)c1-n1c(NS(=O)(=O)C[C@H](O)c2ccc(Cl)cn2)nnc1-c1ccn(C)n1 (mixture of isomers) [Example 363.0, (R)-2-(5-Chloropyridin-2-yl)-N-(4-(2,6-dimethoxyphenyl)-5-(1-methyl-1H-pyrazol-3-yl)-4H-1,2,4-triazol-3-yl)-2-hydroxyethanesulfonamide and (S)-2-(5-chloropyridin-2-yl)-N-(4-(2,6-dimethoxyphenyl)-5-(1-methyl-1H-pyrazol-3-yl)-4H-1,2,4-triazol-3-yl)-2-hydroxyethanesulfonamide] the EC50 was 1.5 nM.
